Values quoted from earlier work as cited in US7258850B2, “Methods and compositions for treating erectile dysfunction” (Aradigm Corporation, priority 1999, dated 2007).
Structures can show the parent of a compound that is named as a salt. Where two headings read alike, the source gives them in different places. Blank lines part the entries; values can stand above or below the compound they belong to. No end group written: not given here.

Columns and labels:
[1] = test system: rabbit corpus carvernosum; settings: rabbit tissue
human corpus carvernosum = settings: human tissue
Rho-kinase = settings: applied topically, rats
sGC = target: T1, sGC (Rattus norvegicus, UniProt P19686+P20595); settings: administered intracavernously, rats
T1 construct: host or cells: in vivo, rat corpus cavernosum
T1 sequence (P20595 1-619): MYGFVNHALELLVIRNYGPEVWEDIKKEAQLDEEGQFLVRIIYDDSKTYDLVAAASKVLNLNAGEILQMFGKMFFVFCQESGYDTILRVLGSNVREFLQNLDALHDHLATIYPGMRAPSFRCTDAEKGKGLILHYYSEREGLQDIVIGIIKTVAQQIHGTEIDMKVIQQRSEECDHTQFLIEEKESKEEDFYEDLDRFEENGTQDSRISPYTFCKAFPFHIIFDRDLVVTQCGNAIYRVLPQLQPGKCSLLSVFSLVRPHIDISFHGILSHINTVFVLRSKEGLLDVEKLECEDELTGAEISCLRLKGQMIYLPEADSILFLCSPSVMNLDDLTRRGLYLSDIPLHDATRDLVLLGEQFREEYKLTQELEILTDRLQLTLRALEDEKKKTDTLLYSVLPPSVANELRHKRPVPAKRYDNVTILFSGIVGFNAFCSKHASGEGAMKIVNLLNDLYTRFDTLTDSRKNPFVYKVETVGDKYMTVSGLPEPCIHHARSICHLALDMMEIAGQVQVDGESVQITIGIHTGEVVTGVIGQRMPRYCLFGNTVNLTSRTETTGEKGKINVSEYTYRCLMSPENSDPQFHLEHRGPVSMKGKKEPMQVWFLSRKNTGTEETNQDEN
T1 sequence (P19686 1-690): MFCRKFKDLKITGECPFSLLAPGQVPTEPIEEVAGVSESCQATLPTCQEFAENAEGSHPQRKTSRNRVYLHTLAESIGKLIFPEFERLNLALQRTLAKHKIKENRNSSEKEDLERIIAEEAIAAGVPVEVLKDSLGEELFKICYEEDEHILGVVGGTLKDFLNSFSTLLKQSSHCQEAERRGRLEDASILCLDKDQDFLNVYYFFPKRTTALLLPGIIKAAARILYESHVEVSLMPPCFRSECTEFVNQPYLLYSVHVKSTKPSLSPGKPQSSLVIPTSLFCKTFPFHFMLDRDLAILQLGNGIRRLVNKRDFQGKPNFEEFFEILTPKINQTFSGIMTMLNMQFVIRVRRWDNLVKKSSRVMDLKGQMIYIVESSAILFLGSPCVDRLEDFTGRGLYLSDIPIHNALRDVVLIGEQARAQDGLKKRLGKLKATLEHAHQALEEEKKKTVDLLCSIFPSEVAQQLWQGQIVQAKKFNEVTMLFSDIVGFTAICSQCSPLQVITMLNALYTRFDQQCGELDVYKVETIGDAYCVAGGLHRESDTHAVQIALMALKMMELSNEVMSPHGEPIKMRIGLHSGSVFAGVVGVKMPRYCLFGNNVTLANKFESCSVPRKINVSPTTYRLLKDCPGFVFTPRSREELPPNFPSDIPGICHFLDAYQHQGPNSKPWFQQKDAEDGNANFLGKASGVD

smooth muscle = settings: intracavernous
[2] = test system: dopamine D1 and D2 receptor; settings: rats, apomorphine in combination with sildenafil

Compound: Nc1nc(-c2nn(Cc3ccccc3F)c3ncccc23)ncc1C1CC1 [BAY-41-2272]
relaxation of corpus cavernosum relative to YC-1 [1]: more potently than YC-1
relaxation of corpus cavernosum relative to YC-1 (human corpus carvernosum): more potently than YC-1

solubility in water: relatively insoluble in water
Compound: CCCc1nn(C)c2c(=O)[nH]c(-c3cc(S(=O)(=O)N4CCN(C)CC4)ccc3OCC)nc12 [sildenifil citrate, Sildenafil citrate]

Compound: C[C@@H](N)[C@H]1CC[C@H](C(=O)Nc2ccncc2)CC1 [Y-27632]
erection (Rho-kinase): stimulated erection

Compound: OCc1ccc(-c2nn(Cc3ccccc3)c3ccccc23)o1 [YC-1, 3-(5′-hydroxymethyl-2′furyl)-1-benzyl-indazole]
erection (sGC): elicited dose-dependent erection

Compound: Vasoactive intestinal peptid: intracavernous drug, potent smooth muscle relaxant (HSDAVFTDNYTRLRKQMAVKKYLNSILN; ends and bridges not checked; UniProt P01282 125-152, looked up)
duration of effect (smooth muscle): up to 2.5 hours

Compound: CN1CCc2cccc3c2[C@H]1Cc1ccc(O)c(O)c1-3 [Apomorphine]
duration of erectile response [2]: prolonged in combination with sildenafil
duration of erectile response ([2]; listed as apomorphine): prolonged by sildenafil
